The target of this assay is T1, SMARCA2 (Homo sapiens, UniProt P51531).
T1 construct: endogenous in cells; host or cells: HT1080 (CRISPR HiBiT knock-in clone, generated in house)
Kind of assay: SMARCA2 HiBiT degradation assay (cellular). It is filed as cell-based. Conditions: table head names A549; for DC50: 6 h incubation, HiBiT-tagged SMARCA2, luminescence read-out, read-out: HiBit A549 SMARCA2 IP (nM) 6 h; for Emax: A549, 6 h incubation, Emax = amount of residual protein remaining in the cell following compound treatment.

Structures are written as SMILES.

T1 sequence (P51531 whole entry): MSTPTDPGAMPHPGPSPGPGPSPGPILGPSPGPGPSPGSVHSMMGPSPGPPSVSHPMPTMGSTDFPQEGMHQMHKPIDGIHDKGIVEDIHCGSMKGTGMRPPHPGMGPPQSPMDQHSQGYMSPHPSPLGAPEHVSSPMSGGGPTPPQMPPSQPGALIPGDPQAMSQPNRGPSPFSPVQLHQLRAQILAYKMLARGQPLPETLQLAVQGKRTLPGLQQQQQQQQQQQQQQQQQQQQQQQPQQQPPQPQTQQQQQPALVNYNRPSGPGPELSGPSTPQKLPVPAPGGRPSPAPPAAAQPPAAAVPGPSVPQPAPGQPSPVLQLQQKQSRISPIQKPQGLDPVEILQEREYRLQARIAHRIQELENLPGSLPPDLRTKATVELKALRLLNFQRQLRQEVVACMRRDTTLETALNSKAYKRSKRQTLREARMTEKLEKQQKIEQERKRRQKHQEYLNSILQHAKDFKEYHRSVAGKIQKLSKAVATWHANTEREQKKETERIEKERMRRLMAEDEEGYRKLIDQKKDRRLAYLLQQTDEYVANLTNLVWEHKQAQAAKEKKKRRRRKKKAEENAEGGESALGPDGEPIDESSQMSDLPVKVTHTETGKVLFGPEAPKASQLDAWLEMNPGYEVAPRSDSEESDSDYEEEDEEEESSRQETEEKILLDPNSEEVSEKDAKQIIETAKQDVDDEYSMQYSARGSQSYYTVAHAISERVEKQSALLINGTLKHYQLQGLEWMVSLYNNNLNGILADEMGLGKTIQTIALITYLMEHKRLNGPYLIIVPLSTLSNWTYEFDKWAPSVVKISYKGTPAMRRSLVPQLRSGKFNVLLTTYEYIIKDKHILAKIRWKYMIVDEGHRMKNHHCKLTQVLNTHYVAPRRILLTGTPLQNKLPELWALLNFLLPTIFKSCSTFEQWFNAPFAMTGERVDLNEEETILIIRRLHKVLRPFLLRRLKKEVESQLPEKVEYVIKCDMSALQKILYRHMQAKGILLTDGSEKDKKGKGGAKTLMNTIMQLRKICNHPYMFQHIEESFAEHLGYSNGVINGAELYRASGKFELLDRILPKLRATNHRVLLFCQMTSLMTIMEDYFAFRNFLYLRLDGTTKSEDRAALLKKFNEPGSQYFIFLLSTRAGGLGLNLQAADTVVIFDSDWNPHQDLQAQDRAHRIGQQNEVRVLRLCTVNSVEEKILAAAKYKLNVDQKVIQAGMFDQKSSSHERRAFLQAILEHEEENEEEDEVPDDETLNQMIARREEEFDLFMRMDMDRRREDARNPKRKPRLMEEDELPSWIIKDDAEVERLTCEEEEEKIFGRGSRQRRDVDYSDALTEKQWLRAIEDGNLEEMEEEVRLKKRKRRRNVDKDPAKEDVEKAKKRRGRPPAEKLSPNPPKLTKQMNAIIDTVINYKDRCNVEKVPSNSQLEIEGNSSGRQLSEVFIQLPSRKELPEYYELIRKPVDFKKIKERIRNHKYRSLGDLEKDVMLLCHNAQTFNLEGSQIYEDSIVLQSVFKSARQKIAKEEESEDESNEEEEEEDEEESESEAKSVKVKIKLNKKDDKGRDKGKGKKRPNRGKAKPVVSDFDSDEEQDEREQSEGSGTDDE

Regarding `Nc1nnc(-c2ccccc2O)cc1N1CC2CCC(C1)N2c1cccc(CC2CCN(C(=O)C3CCN(c4ccc5c(c4)C(=O)N(C4CCC(=O)NC4=O)C5=O)CC3)CC2)c1` (racemic) [Example 70, rac-5-[4-[4-[[3-[3-[3-amino-6-(2-hydroxyphenyl)pyridazin-4-yl]-3,8-diazabicyclo[3.2.1]octan-8-yl]phenyl]methyl]piperidine-1-carbonyl]-1-piperidyl]-2-(2,6-dioxo-3-piperidyl)isoindoline-1,3-dione], the DC50 was determined as 40 nM and the maximal effect (Emax) was found to be 42%.

For the molecule `Nc1nnc(-c2ccccc2O)cc1N1CCC(C(=O)N2CC3(CN(CC4CCN(c5ccc6c(c5)C(=O)N(C5CCC(=O)NC5=O)C6=O)CC4)C3)C2)(c2ccccc2)CC1` (stereo not drawn) [Example 159, 5-(4-((6-(1-(3-amino-6-(2-hydroxyphenyl)pyridazin-4-yl)-4-phenylpiperidine-4-carbonyl)-2,6-diazaspiro[3.3]heptan-2-yl)methyl)piperidin-1-yl)-2-(2,6-dioxopiperidin-3-yl)isoindoline-1,3-dione], the DC50 amounted to 11 nM and the Emax was 27%.

As to `Nc1nnc(-c2ccccc2O)cc1N1CCC(NC(=O)CN2CCC(c3ccc(OC4CCC(=O)NC4=O)cc3)CC2)(c2ccccc2)CC1` (stereo not drawn) [Example 108, N-[1-[3-amino-6-(2-hydroxyphenyl)pyridazin-4-yl]-4-phenyl-4-piperidyl]-2-[4-[4-[(2,6-dioxo-3-piperidyl)oxy]phenyl]-1-piperidyl]acetamide], the DC50 turned out to be 109 nM and the Emax worked out at 48%.

Regarding `Nc1nnc(-c2ccccc2O)cc1N1CC2CCC(C1)N2c1cccc(OCCN2CCN(C(=O)CN3CCC(c4ccc(OC5CCC(=O)NC5=O)cc4)CC3)CC2)c1` (racemic) [Example 43, rac-3-[4-[1-[2-[4-[2-[3-[3-[3-amino-6-(2-hydroxyphenyl)pyridazin-4-yl]-3,8-diazabicyclo[3.2.1]octan-8-yl]phenoxy]ethyl]piperazin-1-yl]-2-oxo-ethyl]-4-piperidyl]phenoxy]piperidine-2,6-dione], the DC50 was 32 nM and the Emax came to 31%.

For `Nc1nnc(-c2ccccc2O)cc1N1CC2CCC(C1)N2c1ccccc1OCCN1CCN(c2ccc3c(c2)C(=O)N(C2CCC(=O)NC2=O)C3=O)CC1` (racemic) [Example 144, rac-5-[4-[2-[2-[3-[3-amino-6-(2-hydroxyphenyl)pyridazin-4-yl]-3,8-diazabicyclo[3.2.1]octan-8-yl]phenoxy]ethyl]piperazin-1-yl]-2-(2,6-dioxo-3-piperidyl)isoindoline-1,3-dione], the DC50 was 797 nM and the Emax was 75%.

Turning to `Nc1nnc(-c2ccccc2O)cc1N1CCC(C(=O)N2CC3(CCN(C(=O)C4CCN(c5ccc6c(c5)C(=O)N(C5CCC(=O)NC5=O)C6=O)CC4)CC3)C2)(c2ccccc2)CC1` (stereo not drawn) [Example 163, 5-(4-(2-(1-(3-amino-6-(2-hydroxyphenyl)pyridazin-4-yl)-4-phenylpiperidine-4-carbonyl)-2,7-diazaspiro[3.5]nonane-7-carbonyl)piperidin-1-yl)-2-(2,6-dioxopiperidin-3-yl)isoindoline-1,3-dione], the DC50 worked out at 22 nM and the Emax was determined as 33%.

For the molecule `Nc1nnc(-c2ccccc2O)cc1N1CCC(C(=O)NCC2CCN(C(=O)CCCN3CCC(c4ccc(NC5CCC(=O)NC5=O)cc4)CC3)CC2)(c2ccccc2)CC1` (stereo not drawn) [Example 105, 1-(3-amino-6-(2-hydroxyphenyl)pyridazin-4-yl)-N-((1-(4-(4-(4-((2,6-dioxopiperidin-3-yl)amino)phenyl)piperidin-1-yl)butanoyl)piperidin-4-yl)methyl)-4-phenylpiperidine-4-carboxamide], the DC50 came out at 100 nM and the Emax was found to be 33%.

As for `Nc1nnc(-c2ccccc2O)cc1N1CC2CCC(C1)N2c1cccc(OCCN2CCN(CCC3CCN(c4ccc5c(c4)C(=O)N(C4CCC(=O)NC4=O)C5=O)CC3)CC2)c1` (racemic) [Example 34, rac-5-[4-[2-[4-[2-[3-[3-[3-amino-6-(2-hydroxyphenyl)pyridazin-4-yl]-3,8-diazabicyclo[3.2.1]octan-8-yl]phenoxy]ethyl]piperazin-1-yl]ethyl]-1-piperidyl]-2-(2,6-dioxo-3-piperidyl)isoindoline-1,3-dione], the DC50 was found to be 26 nM and the Emax is 24%.

On to `Nc1nnc(-c2ccccc2O)cc1O[C@H]1CCCN(c2ccc(N3CCN(CC4CCN(C(=O)CCCCn5cc(COc6cccc7c6C(=O)N(C6CCC(=O)NC6=O)C7=O)nn5)CC4)CC3)cc2)C1` (mixture of isomers) [Example 140, 2-(2,6-dioxo-3-piperidyl)-4-[[1-[5-oxo-5-[4-[[4-[4-[rac-(3S)-3-[3-amino-6-(2-hydroxyphenyl)pyridazin-4-yl]oxy-1-piperidyl]phenyl]piperazin-1-yl]methyl]-1-piperidyl]pentyl]triazol-4-yl]methoxy]isoindoline-1,3-dione], for which the DC50 stood at 275 nM and the Emax worked out at 42%.

On to `Nc1nnc(-c2ccccc2O)cc1N1CCC(C(=O)N2CCC3(CC2)CN(C(=O)C2CCN(c4ccc5c(c4)C(=O)N(C4CCC(=O)NC4=O)C5=O)CC2)CCO3)(c2ccccc2)CC1` (stereo not drawn) [Example 167, 5-(4-(9-(1-(3-amino-6-(2-hydroxyphenyl)pyridazin-4-yl)-4-phenylpiperidine-4-carbonyl)-1-oxa-4,9-diazaspiro[5.5]undecane-4-carbonyl)piperidin-1-yl)-2-(2,6-dioxopiperidin-3-yl)isoindoline-1,3-dione], for which the DC50 came to 54 nM and the Emax was found to be 43%.

Regarding `Nc1nnc(-c2cc(F)ccc2O)cc1N1C2CCC1CN(c1cccc(OCCN3CCN(C(=O)C4CCN(c5ccc6c(c5)C(=O)N(C5CCC(=O)NC5=O)C6=O)CC4)CC3)c1)C2` (stereo not drawn) [Example 160, 5-[4-[4-[2-[3-[8-[3-amino-6-(5-fluoro-2-hydroxy-phenyl)pyridazin-4-yl]-3,8-diazabicyclo[3.2.1]octan-3-yl]phenoxy]ethyl]piperazine-1-carbonyl]-1-piperidyl]-2-(2,6-dioxo-3-piperidyl)isoindoline-1,3-dione], the DC50 came to 144 nM and the maximal response (Emax) was 74%.

`Nc1nnc(-c2ccccc2O)cc1OC1CCCN(c2ccc(OCCN3CCN(C(=O)CCCCCCCCn4cc(CNc5cccc6c5C(=O)N(C5CCC(=O)NC5=O)C6=O)nn4)CC3)cc2)C1` (stereo not drawn) [Example 27, 4-[[1-[9-[4-[2-[4-[3-[3-amino-6-(2-hydroxyphenyl)pyridazin-4-yl]oxy-1-piperidyl]phenoxy]ethyl]piperazin-1-yl]-9-oxo-nonyl]triazol-4-yl]methylamino]-2-(2,6-dioxo-3-piperidyl)isoindoline-1,3-dione]: the DC50 came out at 333 nM and the Emax amounted to 57%.

On to `Nc1nnc(-c2ccccc2O)cc1N1CC2CCC(C1)N2c1cccc(OCCN2CCN(C(=O)COc3ccc4c(c3)C(=O)N(C3CCC(=O)NC3=O)C4=O)CC2)c1` (racemic) [Example 99, rac-5-[2-[4-[2-[3-[3-[3-amino-6-(2-hydroxyphenyl)pyridazin-4-yl]-3,8-diazabicyclo[3.2.1]octan-8-yl]phenoxy]ethyl]piperazin-1-yl]-2-oxo-ethoxy]-2-(2,6-dioxo-3-piperidyl)isoindoline-1,3-dione], for which the DC50 worked out at 31 nM and the Emax worked out at 51%.

On to `Nc1nnc(-c2ccccc2O)cc1OC1CCCN(c2ccc(N3CCN(CCCCCCCCCn4cc(C5(Nc6cccc7c6C(=O)N(C6CCC(=O)NC6=O)C7=O)CC5)nn4)CC3)cc2)C1` (stereo not drawn) [Example 90, 4-[[1-[1-[9-[4-[4-[3-[3-amino-6-(2-hydroxyphenyl)pyridazin-4-yl]oxy-1-piperidyl]phenyl]piperazin-1-yl]nonyl]triazol-4-yl]cyclopropyl]amino]-2-(2,6-dioxo-3-piperidyl)isoindoline-1,3-dione], for which the DC50 was determined as 103 nM and the maximal effect (Emax) was 37%.

For `Nc1nnc(-c2ccccc2O)cc1N1CCC(OCC(=O)NC2CCN(C(=O)CN3CCC(c4ccc(OC5CCC(=O)NC5=O)cc4)CC3)CC2)(c2ccccc2)CC1` (stereo not drawn) [Example 194, 2-[[1-[3-amino-6-(2-hydroxyphenyl)pyridazin-4-yl]-4-phenyl-4-piperidyl]oxy]-N-[1-[2-[4-[4-[(2,6-dioxo-3-piperidyl)oxy]phenyl]-1-piperidyl]acetyl]-4-piperidyl]acetamide], the DC50 amounted to 67 nM and the Emax stood at 61%.

Regarding `Nc1nnc(-c2ccccc2O)cc1N1CCN(c2ccccc2)C(C(=O)NC2CCN(C(=O)CCC3CCN(c4ccc5c(c4)C(=O)N(C4CCC(=O)NC4=O)C5=O)CC3)CC2)C1` (stereo not drawn) [Example 54, 4-[3-amino-6-(2-hydroxyphenyl)pyridazin-4-yl]-N-[1-[3-[1-[2-(2,6-dioxo-3-piperidyl)-1,3-dioxo-isoindolin-5-yl]-4-piperidyl]propanoyl]-4-piperidyl]-1-phenyl-piperazine-2-carboxamide], the DC50 was found to be 42 nM and the Emax worked out at 63%.

`Nc1nnc(-c2ccccc2O)cc1N1CC2CCC(C1)N2c1cccc(OCCN2CCN(C(=O)CCC(=O)N3CCC(Nc4cccc5c4C(=O)N(C4CCC(=O)NC4=O)C5=O)CC3)CC2)c1` (racemic) [Example 20, rac-4-[[1-[4-[4-[2-[3-[3-[3-amino-6-(2-hydroxyphenyl)pyridazin-4-yl]-3,8-diazabicyclo[3.2.1]octan-8-yl]phenoxy]ethyl]piperazin-1-yl]-4-oxo-butanoyl]-4-piperidyl]amino]-2-(2,6-dioxo-3-piperidyl)isoindoline-1,3-dione]: the DC50 was found to be 168 nM and the Emax is 49%.

Consider `Nc1nnc(-c2ccccc2O)cc1N1CC2CCC(C1)N2c1cccc(OC2CCN(C(=O)C3CCN(c4ccc5c(c4)C(=O)N(C4CCC(=O)NC4=O)C5=O)CC3)CC2)c1` (racemic) [Example 113, rac-5-[4-[4-[3-[3-[3-amino-6-(2-hydroxyphenyl)pyridazin-4-yl]-3,8-diazabicyclo[3.2.1]octan-8-yl]phenoxy]piperidine-1-carbonyl]-1-piperidyl]-2-(2,6-dioxo-3-piperidyl)isoindoline-1,3-dione], for which the DC50 stood at 19 nM and the Emax came to 35%.

The values are drawn from patent publication US20230024096A1, “BIFUNCTIONAL COMPOUNDS FOR THE TREATMENT OF CANCER” (Hoffmann-La Roche Inc., priority 2019, published 2023).
